Experimental data taken from PubChem BioAssay (NCI).
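A five-concentration, 48-hour dose response in 96-well plates underlies each endpoint, interpolated linearly between surrounding concentrations. The concentration for full growth arrest is given as TGI.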

How the values were obtained:
Assay in all cases: growth of human tumour cells (NCI), 48 h
IGROV1 ovarian = system: IGROV1 ovarian
SN12C renal = system: SN12C renal
HT29 colon = system: HT29 colon
HCC-2998 colon = system: HCC-2998 colon
SW-620 colon = system: SW-620 colon
SF-539 CNS = system: SF-539 CNS
M14 melanoma = system: M14 melanoma
OVCAR-8 ovarian = system: OVCAR-8 ovarian
OVCAR-5 ovarian = system: OVCAR-5 ovarian
COLO 205 colon = system: COLO 205 colon
NCI-H226 lung = system: NCI-H226 lung
NCI-H522 lung = system: NCI-H522 lung
UO-31 renal = system: UO-31 renal
EKVX NSCLC = system: EKVX NSCLC
SK-MEL-5 melanoma = system: SK-MEL-5 melanoma
A498 renal = system: A498 renal
CAKI-1 renal = system: CAKI-1 renal
HS 578T breast = system: HS 578T breast
KM12 colon = system: KM12 colon
BT-549 breast = system: BT-549 breast

| SMILES | TGI (IGROV1 ovarian) | TGI (SN12C renal) | TGI (HT29 colon) | TGI (HCC-2998 colon) | TGI (SW-620 colon) | TGI (SF-539 CNS) | TGI (M14 melanoma) | TGI (OVCAR-8 ovarian) | TGI (OVCAR-5 ovarian) | TGI (COLO 205 colon) | TGI (NCI-H226 lung) | TGI (NCI-H522 lung) | TGI (UO-31 renal) | TGI (EKVX NSCLC) | TGI (SK-MEL-5 melanoma) | TGI (A498 renal) | TGI (CAKI-1 renal) | TGI (HS 578T breast) | TGI (KM12 colon) | TGI (BT-549 breast) |
| --- | --- | --- | --- | --- | --- | --- | --- | --- | --- | --- | --- | --- | --- | --- | --- | --- | --- | --- | --- | --- |
| NCCCC(N=Cc1nc(-c2ccccc2)oc1O)C(=O)O (configuration not stated) | > 100 µM | > 100 µM | > 100 µM | > 100 µM | > 100 µM | > 100 µM | > 100 µM | > 100 µM | > 100 µM | > 100 µM | > 100 µM | > 100 µM | > 100 µM | > 100 µM | > 100 µM | > 100 µM |  |  |  |  |
| CC(C)[C@@H]1CC[C@@H](C)C[C@H]1OC(=O)/C=C1\C(C(=O)O[C@@H]2C[C@H](C)CC[C@H]2C(C)C)[C@H]2C=C[C@@H]1O2 (some centres not stated) | > 100 µM | > 100 µM | > 100 µM | > 100 µM | > 100 µM | > 100 µM | > 100 µM | > 100 µM | > 100 µM | > 100 µM | > 100 µM | > 100 µM | > 100 µM | > 100 µM | > 100 µM | > 100 µM | > 100 µM | > 100 µM | > 100 µM |  |
| O=c1[nH]c2ccc(Cl)cc2o1 | > 100 µM | > 100 µM | > 100 µM |  | > 100 µM | > 100 µM | > 100 µM | > 100 µM | > 100 µM | > 100 µM | > 100 µM | > 100 µM | > 100 µM | > 100 µM | > 100 µM | > 100 µM | > 100 µM | > 100 µM | > 100 µM | > 100 µM |
| Cc1ccc2c(=O)c(-c3nnc(NC4CCCCC4)s3)c[nH]c2n1 | > 100 µM | > 100 µM | > 100 µM |  | > 100 µM |  | > 100 µM | > 100 µM | > 100 µM | > 100 µM | > 100 µM | > 100 µM | > 100 µM | > 100 µM | > 100 µM | > 100 µM | > 100 µM | > 100 µM | > 100 µM | > 100 µM |
| CC(Cc1ccccc1)N(C)Cc1nc(C2CCC([N+](=O)[O-])O2)no1 (configuration not stated) | 25.5 µM | 11 µM | 11.5 µM | 14.3 µM | 14.9 µM | 8.38 µM | 19.1 µM | 59.1 µM | 29 µM | 12.9 µM | 32.4 µM |  | 20.4 µM | 94.4 µM | 24.3 µM |  |  | 17.9 µM | 21 µM |  |
| CC(=O)c1c2c(cc3c1CC1(Cc4cc5c(cc4C1)C(=O)CCC5)C3)CCCC2 (configuration not stated) | > 30.8 µM | > 100 µM | > 32.7 µM | 97.9 µM | > 100 µM | 13.6 µM | > 100 µM | > 80.6 µM | > 100 µM | 21.7 µM | 41.8 µM | 31.4 µM | > 90.6 µM | > 87.2 µM | 7.38 µM | 8.95 µM | > 100 µM | > 88.3 µM | 78.4 µM |  |
| CNC(=O)CCCNC(=O)CCCCC(=O)N(C)C |  | > 100 µM | > 100 µM |  | > 100 µM | > 100 µM | > 100 µM | > 100 µM | > 100 µM | > 100 µM |  | > 100 µM | > 100 µM |  | > 100 µM | > 100 µM | > 100 µM |  | > 100 µM |  |
| O=c1[nH]nc(-c2ccccc2)n1-c1cccc([N+](=O)[O-])c1 | > 100 µM | > 100 µM | > 100 µM | > 100 µM | > 100 µM | > 100 µM | > 100 µM | > 100 µM | > 100 µM | > 100 µM | > 100 µM | > 100 µM | > 100 µM | > 100 µM | > 100 µM | > 100 µM | > 100 µM | > 100 µM | > 100 µM |  |
| CC(=O)NC1CC(C(C)(C)NC(C)=O)CC=C1C (configuration not stated) | > 100 µM | > 100 µM | > 100 µM | > 100 µM | > 100 µM | > 100 µM | > 100 µM | > 100 µM | > 100 µM | > 100 µM |  | > 100 µM | > 100 µM | > 100 µM | > 100 µM |  |  |  | > 100 µM | > 100 µM |
| O=C(O/N=c1/ccc(=O)/c(=N\OC(=O)c2ccccc2)c1=O)c1ccccc1 | > 100 µM | > 100 µM | > 100 µM | > 100 µM | > 100 µM | > 100 µM | > 100 µM | > 100 µM | > 100 µM | > 100 µM | > 100 µM | > 100 µM | > 100 µM | > 100 µM | > 100 µM | > 100 µM | > 100 µM | > 100 µM | > 100 µM |  |
| Cc1ccc(C)n2c1nc1cc3ccccc3cc12 | > 100 µM | > 100 µM |  |  | > 100 µM | > 100 µM | > 100 µM | > 100 µM | > 100 µM | > 100 µM | > 100 µM |  | 94.4 µM | > 100 µM | 93 µM |  |  | > 100 µM | > 100 µM | > 100 µM |
| COc1cc2c(c(OC)c1OC)C(=O)[C@@H](O)[C@H]2NC(N)=O | > 100 µM | > 100 µM | > 100 µM | > 100 µM | > 100 µM | > 100 µM | > 100 µM | > 100 µM | > 100 µM | > 100 µM | > 100 µM | > 100 µM | > 100 µM | > 100 µM | > 100 µM |  | > 100 µM | > 100 µM | > 100 µM |  |
| CO[C@@H]1C[C@H]2[C@@H]3CC[C@H]([C@H](C)COC(C)=O)[C@@]3(C)CC[C@@H]2[C@@]2(C)CC[C@H]3C[C@]312 | > 100 µM | > 100 µM | > 100 µM | > 100 µM | > 100 µM | > 100 µM | > 100 µM | > 100 µM | > 100 µM | > 100 µM | > 100 µM | > 100 µM | > 100 µM | > 100 µM | > 100 µM | > 100 µM | > 100 µM | > 100 µM | > 100 µM |  |
